In patent publication US8969413B2:

Experiments:
hGAT-2 = target: T1, hGAT-2 (Homo sapiens, UniProt Q9NSD5); experiment: [3H]GABA uptake at human GABA transporters, tsA201 cells; format: cell-based
T1 construct: expressed in transfected cells; host or cells: tsA201 cells, transient (PolyFect)
Experimental: (§1) tsA201 cells were cultured in GlutaMAX-I DMEM supplemented with 10% fetal bovine serum, penicillin (100 U/ml), and streptomycin (100 μg/ml) at 37° C. in a humidified atmosphere of 95% air and 5% CO2. […] J. Biol. Chem. 2007, 282, 19331-19341. […] Quantification was performed by using Microscint™ 20 scintillation fluid (PerkinElmer) and a Packard TopCount microplate scintillation counter.

hBGT-1 = target: T2, hBGT-1 (Homo sapiens, UniProt P48065); experiment: as above; format: cell-based
T2 construct: expressed in transfected cells; host or cells: tsA201 cells, transient (PolyFect)
T2 sequence (P48065 whole entry): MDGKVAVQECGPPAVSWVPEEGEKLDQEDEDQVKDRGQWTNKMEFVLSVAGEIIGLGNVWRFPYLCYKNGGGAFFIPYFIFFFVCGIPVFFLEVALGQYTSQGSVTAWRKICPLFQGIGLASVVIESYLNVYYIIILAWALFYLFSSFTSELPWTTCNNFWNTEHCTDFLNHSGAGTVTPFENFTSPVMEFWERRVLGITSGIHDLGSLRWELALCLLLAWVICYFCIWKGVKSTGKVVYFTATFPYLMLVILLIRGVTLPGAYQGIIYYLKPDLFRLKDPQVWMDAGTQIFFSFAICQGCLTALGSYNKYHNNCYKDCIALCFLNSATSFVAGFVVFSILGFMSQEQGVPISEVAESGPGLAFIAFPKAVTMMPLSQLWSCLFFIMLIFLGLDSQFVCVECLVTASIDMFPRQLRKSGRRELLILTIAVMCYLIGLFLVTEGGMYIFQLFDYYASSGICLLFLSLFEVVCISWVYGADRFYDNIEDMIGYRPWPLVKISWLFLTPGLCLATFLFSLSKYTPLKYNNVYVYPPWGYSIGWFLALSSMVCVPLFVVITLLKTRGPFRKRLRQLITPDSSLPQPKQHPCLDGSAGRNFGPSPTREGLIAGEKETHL
Experimental: as §1

Rat = experiment: subcutaneous Metrazol seizure threshold test (scMET); format: in vivo; conditions: 7 days IP, 20 mg/kg dose only, Metrazol 70 mg/kg
Experimental: Subcutaneous injection of the convulsant Metrazol produces clonic seizures in laboratory animals. […] Animals are pretreated with various doses of the test compound given by i.p. injection. At the previously determined TPE of the test compound, the dose of Metrazol which will induce convulsions in 97% of animals (CD97; 85 mg/kg mice) is injected into a loose fold of skin in the midline of the neck. The animals are placed in isolation cages to minimize stress (Swinyard et al, 1961) and observed for the next 30 minutes for the presence or absence of a seizure. An episode of clonic spasms, approximately 3-5 seconds, of the fore and/or hindlimbs, jaws, or vibrissae is taken as the endpoint.

cortical astrocytes = experiment: [3H]GABA uptake in cultured cortical astrocytes; format: cell-based; conditions: Mus musculus, Astrocyte
Experimental: Cortical astrocytes were cultured essentially as previously described. Hertz L, Juurlink B H J, Hertz E, Fosmark H and Schousboe A. Preparation of Primary Cultures of Mouse (Rat) Astrocytes, in A Dissection and Tissue Culture Manual of the Nervous System (Shahar A, de Vellis J, Vernadakis A and Haber B eds) pp 105-108, Alan R. Liss, Inc., New York, 1989 The neopallium was removed from new born NMRI mice (Taconic, Denmark) and passed through an 80 μm nylon sieve and cultured in modified Dulbecco's modified Eagle's medium with fetal calf serum. The calf serum was lowered from 20% to 10% over three weeks, and finally the astrocytes were allowed to differentiate using 0.25 mM dibutyryl cyclic AMP during the last week of growth.
Cortical neurons were cultured essentially as previously described by removing the neopallium of 15-day old NMRI embryos by dissection followed by mild trypsination. Hertz E, Yu A C H, Hertz L, Juurlink B H J and Schousboe A. Preparation of Primary Cultures of Mouse Cortical Neurons, in A Dissection and Tissue Culture Manual of the Nervous System (Shahar A, de Vellis J, Vernadakis A and Haber B eds) pp 183-186, Alan R. Liss, Inc., New York, 198. […] Radioactivity was measured using Microscint™ 20 scintillation fluid (PerkinElmer) and a Packard TopCount microplate scintillation counter.

human ρ1 GABAC receptors = target: T3, human ρ1 GABAC receptors (Homo sapiens, UniProt P24046); experiment: GABAC receptor two-electrode voltage clamp in Xenopus laevis oocytes; format: cell-based
T3 construct: expressed in transfected cells; host or cells: Xenopus laevis oocytes injected with ρ1 mRNA
T3 sequence (P24046 21-479 limits assumed): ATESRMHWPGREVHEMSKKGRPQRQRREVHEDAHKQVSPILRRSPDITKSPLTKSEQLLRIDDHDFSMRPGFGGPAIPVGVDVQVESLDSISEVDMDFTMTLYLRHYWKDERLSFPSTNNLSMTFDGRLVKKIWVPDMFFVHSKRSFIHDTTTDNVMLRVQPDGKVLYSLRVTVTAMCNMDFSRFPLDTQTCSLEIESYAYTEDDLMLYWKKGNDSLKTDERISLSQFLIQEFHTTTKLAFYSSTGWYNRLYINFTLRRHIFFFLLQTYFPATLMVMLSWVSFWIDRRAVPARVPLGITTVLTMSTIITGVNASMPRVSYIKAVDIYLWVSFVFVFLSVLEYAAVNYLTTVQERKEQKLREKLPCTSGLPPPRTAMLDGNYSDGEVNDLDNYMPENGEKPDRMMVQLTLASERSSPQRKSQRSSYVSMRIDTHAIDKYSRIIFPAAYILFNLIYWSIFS
Experimental: Human ρ1 cDNA encapsulated in pcDNA1.1 was linearized with Not1. Linearized cDNA was transcribed to mRNA using the T7 “mMESSAGE mMACHINE” kit (Ambion Inc. Austin, Tex., USA) as previously described. […] Eur. J. Pharmacol. 2001, 430, 185-192. GABAC receptor activity assays were performed in oocytes harvested from Xenopus laevis (housed in the Department of Veterinary Science at the University of Sydney) and defolliculated. The oocytes were stored in ND96 solution (in mM) NaCl (96), KCl (2), MgCl2 (1), CaCl2 (1.8), HEPES (hemi-Na salt; 5) supplemented with sodium pyruvate (2.5), theophylline (0.5), and 50 μg/ml^−1 gentamycin for 2-5 days post-injection.
Electrophysiological methods were performed as previously described. Hertz L, Juurlink B H J, Hertz E, Fosmark H and Schousboe A. Preparation of Primary Cultures of Mouse (Rat) Astrocytes, in A Dissection and Tissue Culture Mnual of the Nervous System (Shahar A, de Vellis J, Vernadakis A and Haber B eds) pp 105-108, Alan R. Liss, Inc., New York, 1989 Stage V-VI oocytes were injected with 10 ng 50 nl^−1 of ρ1 mRNA and then stored at 16° C. Recordings of receptor activity were obtained for 2-5 days by a two-electrode voltage clamp by means of a Geneclamp 500 amplifier (Axon Instruments Inc., Foster City, Calif.), a MacLab 2e recorder (AD Instruments, Sydney, NSW), and Chart version 3.6.3 program. Oocytes were voltage clamped at −60 mV, and the preparation was continually perfused with ND96 solution at room temperature. […] Compound 2 (CPP-115) was tested on three oocytes from at least two harvests.

GABAB receptor = GABAB receptor (Rattus norvegicus, UniProt Q9Z0U4); conditions: 100 μM, rat brain cortical homogenate
Chain of GABAB receptor (Q9Z0U4 17-960 limits assumed): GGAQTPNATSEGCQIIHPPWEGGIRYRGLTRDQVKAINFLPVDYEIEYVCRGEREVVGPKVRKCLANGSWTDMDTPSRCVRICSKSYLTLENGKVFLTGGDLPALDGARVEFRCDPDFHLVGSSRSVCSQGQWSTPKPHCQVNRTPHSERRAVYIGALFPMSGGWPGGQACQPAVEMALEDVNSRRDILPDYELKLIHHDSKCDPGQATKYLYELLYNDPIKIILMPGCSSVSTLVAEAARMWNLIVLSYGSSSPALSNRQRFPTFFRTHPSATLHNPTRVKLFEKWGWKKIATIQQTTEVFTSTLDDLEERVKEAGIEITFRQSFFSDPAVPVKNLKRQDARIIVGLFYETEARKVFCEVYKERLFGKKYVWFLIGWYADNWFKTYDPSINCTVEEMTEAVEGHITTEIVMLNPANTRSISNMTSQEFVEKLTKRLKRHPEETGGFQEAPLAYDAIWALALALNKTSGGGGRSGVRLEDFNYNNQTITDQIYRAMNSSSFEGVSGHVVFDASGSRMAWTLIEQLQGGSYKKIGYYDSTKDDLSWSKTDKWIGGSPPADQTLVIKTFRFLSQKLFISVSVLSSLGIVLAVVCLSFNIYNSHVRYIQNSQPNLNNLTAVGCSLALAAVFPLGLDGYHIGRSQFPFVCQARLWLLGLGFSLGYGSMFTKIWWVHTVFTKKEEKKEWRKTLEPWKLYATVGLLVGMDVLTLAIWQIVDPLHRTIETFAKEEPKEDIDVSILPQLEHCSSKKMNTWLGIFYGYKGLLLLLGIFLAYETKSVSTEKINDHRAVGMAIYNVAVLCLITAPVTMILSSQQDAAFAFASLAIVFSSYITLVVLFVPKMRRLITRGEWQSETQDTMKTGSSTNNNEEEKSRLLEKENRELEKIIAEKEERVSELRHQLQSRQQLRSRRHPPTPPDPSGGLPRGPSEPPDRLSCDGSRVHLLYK
Chain of GABAB receptor (O88871 41-940 partner): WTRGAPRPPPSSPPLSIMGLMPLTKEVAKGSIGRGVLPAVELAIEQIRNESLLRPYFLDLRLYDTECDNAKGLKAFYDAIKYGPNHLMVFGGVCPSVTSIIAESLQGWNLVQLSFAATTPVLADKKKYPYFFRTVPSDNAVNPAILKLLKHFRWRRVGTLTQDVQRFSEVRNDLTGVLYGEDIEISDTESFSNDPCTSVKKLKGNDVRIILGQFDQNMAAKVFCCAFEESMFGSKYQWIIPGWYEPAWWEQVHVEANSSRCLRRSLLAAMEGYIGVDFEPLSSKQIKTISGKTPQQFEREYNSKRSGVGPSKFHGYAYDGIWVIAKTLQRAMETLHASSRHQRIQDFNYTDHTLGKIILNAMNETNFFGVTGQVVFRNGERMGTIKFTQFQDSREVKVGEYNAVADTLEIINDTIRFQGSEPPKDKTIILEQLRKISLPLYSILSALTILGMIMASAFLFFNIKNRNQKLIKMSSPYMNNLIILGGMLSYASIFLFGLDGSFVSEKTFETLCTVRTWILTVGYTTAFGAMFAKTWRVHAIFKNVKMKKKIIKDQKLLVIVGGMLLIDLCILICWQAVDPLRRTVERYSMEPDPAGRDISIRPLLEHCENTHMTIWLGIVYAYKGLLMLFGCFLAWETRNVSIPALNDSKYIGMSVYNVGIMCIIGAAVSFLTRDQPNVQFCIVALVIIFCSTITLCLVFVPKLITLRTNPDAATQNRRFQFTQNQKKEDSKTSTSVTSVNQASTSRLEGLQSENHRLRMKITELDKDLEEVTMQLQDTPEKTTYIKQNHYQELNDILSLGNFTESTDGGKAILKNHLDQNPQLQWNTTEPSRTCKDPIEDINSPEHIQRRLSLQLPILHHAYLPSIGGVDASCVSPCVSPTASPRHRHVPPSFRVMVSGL

Mice = experiment: corneal kindling; format: in vivo
Text: Mice are kindled electrically with 3 sec stimulation, 8 mA, 60 Hz, and corneal electrodes to a criterion of 10 consecutive Stage 5 seizures (facial clonus and head nodding progressing to forelimb clonus, and finally rearing and falling accompanied by a generalized clonic seizure as described by Racine). Stage 5 is generally reached after twice daily stimulation for 8 days. With continued stimulation once a day, animals usually progress to a reproducible Stage 5 after 10-14 additional days. At least 72 hours after the mice have been kindled, the test substance is administered either i.p. or p.o. and, at the previously determined TPE, each animal is given the electrical stimulus indicated above. Following stimulation, the animals are observed for the presence or absence of the rearing and falling criteria of a Stage 5 seizure. Treated animals not displaying a Stage 3, 4, or 5 seizure are considered protected. The dose of the test substance is varied between the limits of 0 and 100% efficacy, and the ED50 (mean effective dose) and 95% confidence intervals calculated by probit analysis. Mean values and the S.E.M. are calculated for the length of clonus and seizure duration and p values are determined by the Student's t-test

T1 sequence (Q9NSD5 whole entry): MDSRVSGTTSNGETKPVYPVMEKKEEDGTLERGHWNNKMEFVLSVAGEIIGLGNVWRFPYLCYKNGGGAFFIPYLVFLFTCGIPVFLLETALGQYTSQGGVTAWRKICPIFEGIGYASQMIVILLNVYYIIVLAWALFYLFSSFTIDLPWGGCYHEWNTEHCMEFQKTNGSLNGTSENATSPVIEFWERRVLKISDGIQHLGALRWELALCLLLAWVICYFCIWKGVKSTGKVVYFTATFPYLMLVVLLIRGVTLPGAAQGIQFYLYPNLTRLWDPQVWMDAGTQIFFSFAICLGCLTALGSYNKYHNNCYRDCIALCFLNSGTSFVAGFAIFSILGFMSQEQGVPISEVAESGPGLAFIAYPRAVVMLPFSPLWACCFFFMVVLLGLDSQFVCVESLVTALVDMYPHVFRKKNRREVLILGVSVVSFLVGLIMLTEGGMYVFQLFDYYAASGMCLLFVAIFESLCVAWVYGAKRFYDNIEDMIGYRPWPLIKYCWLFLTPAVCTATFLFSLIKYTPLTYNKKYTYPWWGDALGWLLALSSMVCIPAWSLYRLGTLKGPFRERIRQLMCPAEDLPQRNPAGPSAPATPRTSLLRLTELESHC

## N[C@H]1C[C@@H](C(=O)O)CC1=C(F)F [CPP-115]
hGAT-2
  IC50: > 1000 µM
hBGT-1
  IC50: > 1000 µM
Rat
  scMET protection: No protection
Cortical astrocytes
  IC50: > 1000 µM
Human ρ1 GABAC receptors; 100 μM
  effect as agonist or antagonist at ρ1 GABAC receptors: no effect as an agonist or antagonist
Human ρ1 GABAC receptors; 100 μM alone, clamped at −60 mV
  activation of current in oocytes: did not activate a current
Human ρ1 GABAC receptors; 100 μM co-applied with GABA 1 μM, p>0.05, n=3
  reduction of the GABA response on co-application: did not significantly reduce the GABA response
GABAB receptor
  inhibition of radioligand binding at GABAB receptors: no inhibition of binding was observed
Mice; Single IP drug dose, primed @ 8 mA, 60 Hz, 3 secs, for 8 days
  Corn. Kind. TPE: TPE 4 hours
Mice; ip, 192 h, read-out: Corn. Kind. ED50
  ED50: 20.1 mg/kg
GABAA receptor; 100 μM, rat brain cortical homogenate
  inhibition of radioligand binding at GABAA receptors: no inhibition of binding was observed
GABAA receptor; read-out: [3H]muscimol competition (GABAA receptor) IC50, 5 nM [3H]muscimol, 0 °C, 60 min
  IC50: > 100 µM
